Experimental data published in patent publication US20190054135A1, “PLANT OR MICROORGANISM-DERIVED CAROTENOID-OXYGEN COPOLYMER COMPOSITIONS, METHODS OF IDENTIFYING, QUANTIFYING AND PRODUCING SAME AND USES THEREOF” (Avivagen Inc., priority 2016, published 2019).

Experiments:
[1] = solubility as noted during extraction and precipitation; assay type: physicochemical; conditions: pH 12-13
Procedure: Purification and concentration of GA was achieved using chloroform. The chloroform extract contained a complex mixture of substances, including carotenoids and carboxylic acids.
Indeed, addition of hexanes to an ethyl acetate extract of carrot powder #1 yielded a brown precipitate. Redissolving the recovered solid in ethyl acetate and precipitating again with hexanes and repeating the procedure gave a brown solid, which, at ca. 0.7 mg/g, was about 1.4 times the estimated OxPVA level, well within the anticipated range for the GA-based estimate (see Isolated Polymer and Polymer/OxPVA columns in Table 2). A similar ratio (1.6) was found for carrot powder #2, for which the yield of copolymer was around half that of carrot powder #1, in line with the respective relative amounts of GA. Confirmation that the isolated solid is largely composed of carotenoid-oxygen copolymer products was provided by comparison of elemental composition, IR, UV-Vis, GPC and GC-MS thermal decomposition data with the corresponding data for the OxBC polymer.

[2] = system: prostate carcinogenesis; conditions: rat model of prostate carcinogenesis; cited from earlier work

| Structure (SMILES) | solubility in water [1] | inhibition of prostate carcinogenesis [2] |
| --- | --- | --- |
| CC(=O)CCCC(C)(C)C(=O)O [GA, geronic acid] | soluble in water | – |
| CC(C)=CCC/C(C)=C/C=C/C(C)=C/C=C/C(C)=C/C=C/C=C(C)/C=C/C=C(C)/C=C/C=C(\C)CCC=C(C)C [lycopene] | – | not lycopene alone inhibited carcinogenesis |
